Literature values in PMC4621754, “Parasitic diarrheal disease: drug development and targets” (Frontiers in Microbiology, 2015).
Where two headings read alike, the source gives them in different places.

Test system: E. histolytica
[1] = HM1: IMSS strain, ref Wani et al., 2012b
[2] = HM1:IMSS strain, ref Duque-Montaño et al., 2013
[3] = ref Hernández-Nunez et al., 2009

1,1^∕-(10,15-diphenyl-21,23-dithiaporphine-5,20-diyl)bis[2-{[methyl(phenylmethyl)amino]methyl}-ferrocene] [Compound 34]
IC50 (in vitro, HM1:IMSS strain, ref Bhat et al., 2009b): 0.59 µM

Cc1ccc(/C=C/C(=O)c2ccc(C)cc2)cc1 [Compound 25, (2E)-1,3-bis(4-methylphenyl)prop-2-en-1-one]
IC50 [1]: 4.19 µM

COc1ccc(-c2nnnn2CC(=O)N2N=C(c3ccccc3)CC2c2ccc(OC)cc2)cc1 (stereo not shown) [Compound 26, 1-(4,5-dihydro-5-(4-methoxyphenyl)-3-phenylpyrazol-1-yl)-2-(5-(4-methoxyphenyl)-1H-tetrazol-1-yl)ethanone]
IC50 [1]: 1.16 µM

O=[N+]([O-])c1ccc(S(=O)(=O)Nc2nc(NS(=O)(=O)c3ccc([N+](=O)[O-])cc3)nc(-c3ccc4c(c3)OCO4)n2)cc1 [Compound 27, N, N^∕-6-(1,3-benzodioxol-5-yl)-(1,3,5-triazine-2,4-diyl)-bis-4-nitrobenzene sulphonamide]
IC50 (ref Wani et al., 2012a): 1.02 µM

O=S(=O)(Nc1nc(-c2ccccc2)cc(-c2ccccc2Cl)n1)c1ccccc1 [Compound 28, N-[4-(2-chlorophenyl)-6-phenylpyrimidin-2-yl]-benzenesulphonamide]
IC50 (in vitro, ref Siddiqui and Azam, 2014): 0.44 µM

COc1ccc(C2ON=C(c3ccc([N+](=O)[O-])s3)O2)cc1 (stereo not shown) [Compound 29, 5-(4-methoxy-phenyl)-3-(5-nitro-2-thienyl)-1,4,2-dioxazole]
IC50 (in vitro, ref Irfan et al., 2010): 1.6 µM

Cc1cccc(NC(=S)NN=Cc2ccc(-c3c4nc(c(-c5ccccc5)c5ccc([nH]5)c(-c5ccccc5)c5nc(c(-c6ccccc6)c6ccc3[nH]6)C=C5)C=C4)cc2)c1 [Compound 30, 4-(3-methylphenyl)-1-{[4-(10,15,20-triphenylporphyrin-5-yl)phenyl]methylidene}thiosemicarbazide]
IC50 (ref Bhat et al., 2008): 0.538 µM

CC(=NNC(=S)NCc1ccc(C)cc1)c1c(O)ccc2ccc(=O)oc12 [Compound 31, 7-hydroxy-8-acetylcoumarin-N(4,4)methylbenzyl thiosemicarbazone]
IC50 (ref Iqbal et al., 2009): 1.06 µM

O=[N+]([O-])c1ccc(NC(=S)N2N=C(c3ccccc3)CC2c2ccc(C3CC(c4ccccc4)=NN3C(=S)Nc3ccc([N+](=O)[O-])cc3)cc2)cc1 (stereo not shown) [Compound 32]
IC50 (ref Bhat et al., 2009a): 0.42 µM

CC(C)c1ccccc1C1CC(c2ccccc2)=NN1c1nc2nc3ccccc3nc2s1 (stereo not shown) [Compound 33, 2-{5-[2-(methylethyl)phenyl]-3-phenyl-2-pyrazolinyl}-1,3-thiazolino[5,4-b]quinoxaline]
IC50 (HM1:IMSS strain, ref Budakoti et al., 2009): 0.17 µM

COC(=O)c1ccc2c(c1)[n+]([O-])c(C(C)=O)c(C)[n+]2[O-] [Compound 37, methyl 2-acetyl-3-methyl-quinoxaline-7-carboxylate 1,4-di-N-oxide]
IC50 [2]: 1.41 µM

CCOC(=O)c1ccc2c(c1)[n+]([O-])c(C(N)=O)c(C)[n+]2[O-] [Compound 38, ethyl 2-amide-3-methylquinoxaline-7-carboxylate 1,4-di-N-oxide]
IC50 [2]: 1.47 µM

COc1ccc(NC(=O)C(N)CCSC(F)(F)F)cc1OC (stereo not shown) [Compound 40, 3,4-dimethoxyanilide trifluoromethionine]
IC50 (in vitro, ref Sato et al., 2010): 1.19 µM

COc1ccc2[nH]c(-c3ccc(OCCCCCOc4ccc(-c5nc6cc(OC)ccc6[nH]5)cc4)cc3)nc2c1 [Compound 41, 1,5-bis[4-(5-methoxy-1H-benzimidazole-2-yl)phenoxy]pentane]
IC50 (in vitro, ref Torres-Gomez et al., 2008b): 0.109 µM

Cc1nc([N+](=O)[O-])cn1CC(=O)NCc1ccccc1 [Compound 42, N-benzyl-2-(2-methyl-4-nitro-1H-imidazol-1-yl)acetamide]
IC50 [3]: 3.96 µM

Cc1ccc(S(=O)(=O)n2cc([N+](=O)[O-])nc2C)cc1 [Compound 43, 2-methyl-1-[(4-methylphenyl)sulfonyl]-4-nitro-1H-imidazole]
IC50 [3]: 3.55 µM

O=[N+]([O-])c1cccc(/C=N/Nc2ccccc2)c1 [Compound 44, (E)-1-(3-nitrobenzylidene)-2-phenylhydrazine]
IC50 (in vitro, HM1:IMSS strain, ref Toledano-Magana et al., 2015): 0.84 µM

Ni(Fctpy)2][PF6]2 [Compound 22]
activity against E. histolytica (ref Juneja et al., 2014): most promising activity

cyclosporine A [reference compound]
proliferation of E. histolytica (ref Carrero et al., 2004): inhibits proliferation
